Laboratory results taken from the supplement of paper PMC10307832.

Columns and labels:
Assay in all cases: relative viability (nuclei count vs DMSO), 5 days (fraction); higher = more cells survive
[1] = compound: C1COCCN1C2=NC(=NC3=C2OC4=C3C=CC=N4)C5=CC(=CC=C5)NC(=O)C6=CN=C(C=C6)N + CC(=O)Nc1cccc(-n2c(=O)n(C3CC3)c(=O)c3c(Nc4ccc(I)cc4F)n(C)c(=O)c(C)c32)c1 [Trametinib] (partner 0.02 µM)
How it was run: (§1)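 Lung cancer cell lines were pin-tool dosed in 1536-well plates on the day after seeding, with either a lone drug or a fixed anchor-drug dose plus five library-drug doses (not always all listed) in √10 steps. Nuclei were counted on 4× images after 5 days. Relative viability is the ratio of treated-well to vehicle-well nuclei counts, with each value a median of duplicate plates.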

[2] = compound: C1COCCN1C2=NC(=NC3=C2OC4=C3C=CC=N4)C5=CC(=CC=C5)NC(=O)C6=CN=C(C=C6)N + C[C@@H](Oc1cc(-c2cnn(C3CCNCC3)c2)cnc1N)c1c(Cl)ccc(F)c1Cl [Crizotinib] (partner 1 µM)
How it was run: as §1

SGI-1776 + Pictilisib = compound: CN1CCC(CNc2ccc3ncc(-c4cccc(OC(F)(F)F)c4)n3n2)CC1 [SGI-1776] + CS(=O)(=O)N1CCN(Cc2cc3nc(-c4cccc5[nH]ncc45)nc(N4CCOCC4)c3s2)CC1 [Pictilisib] (partner 1 µM)
How it was run: as §1

SGI-1776 + Olaparib = compound: CN1CCC(CNc2ccc3ncc(-c4cccc(OC(F)(F)F)c4)n3n2)CC1 [SGI-1776] + O=C(c1cc(Cc2n[nH]c(=O)c3ccccc23)ccc1F)N1CCN(C(=O)C2CC2)CC1 [Olaparib] (partner 8 µM)
How it was run: as §1

Cell Line | relative viability ([1]; first compound 0.02 µM) | relative viability ([1]; first compound 0.06325 µM) | relative viability ([1]; first compound 0.2 µM) | relative viability ([1]; first compound 0.6325 µM) | relative viability ([1]; first compound 2 µM) | relative viability ([2]; first compound 0.02 µM) | relative viability ([2]; first compound 0.06325 µM) | relative viability ([2]; first compound 0.2 µM) | relative viability ([2]; first compound 0.6325 µM) | relative viability ([2]; first compound 2 µM) | relative viability (SGI-1776 + Pictilisib; first compound 0.08 µM) | relative viability (SGI-1776 + Pictilisib; first compound 0.8 µM) | relative viability (SGI-1776 + Pictilisib; first compound 2.53 µM) | relative viability (SGI-1776 + Pictilisib; first compound 8 µM) | relative viability (SGI-1776 + Olaparib; first compound 0.08 µM) | relative viability (SGI-1776 + Olaparib; first compound 0.8 µM) | relative viability (SGI-1776 + Olaparib; first compound 2.53 µM) | relative viability (SGI-1776 + Olaparib; first compound 8 µM)
NCI-H2405 | 0.478 | 0.722 | 0.672 | 0.553 | 0.418 | 0.885 | 0.864 | 0.848 | 0.821 | 0.659 | 0.478 | 0.507 | 0.309 | 0.257 | 0.828 | 0.879 | 0.789 | 0.712
HCC-44 | 1.12 | 1.31 | 1.04 | 1.09 | 1 | 0.879 | 0.927 | 0.835 | 0.887 | 0.624 | 0.662 | 0.589 | 0.653 | 0.42 | 0.998 | 0.973 | 0.89 | 0.984
HCC-78 | 0.926 | 0.836 | 0.899 | 0.756 | 0.566 | 0.352 | 0.327 | 0.329 | 0.282 | 0.261 | 0.27 | 0.231 | 0.199 | 0.164 | 0.891 | 0.91 | 0.801 | 0.95
COR-L23 | 0.609 | 0.669 | 0.663 | 0.593 | 0.469 | 0.68 | 0.748 | 0.716 | 0.809 | 0.43 | 0.916 | 0.868 | 0.821 | 0.667 | 0.345 | 0.396 | 0.377 | 0.275
NCI-H2009 | 0.264 | 0.273 | 0.221 | 0.245 | 0.256 | 0.984 | 1.11 | 0.927 | 1.07 | 0.72 | 0.764 | 0.93 | 0.682 | 0.474 | 0.714 | 0.769 | 0.688 | 0.623
NCI-H3122 | 0.275 | 0.249 | 0.233 | 0.229 | 0.175 | 0.312 | 0.236 | 0.242 | 0.271 | 0.24 | 0.594 | 0.717 | 0.632 | 0.515 | 0.688 | 0.697 | 0.62 | 0.647
NCI-H2228 | 0.578 | 0.615 | 0.449 | 0.48 | 0.454 | 0.489 | 0.536 | 0.364 | 0.397 | 0.291 | 0.446 | 0.38 | 0.286 | 0.177 | 0.671 | 0.762 | 0.548 | 0.396
NCI-H1944 | 0.378 | 0.453 | 0.451 | 0.382 | 0.377 | 1.23 | 1.34 | 1.09 | 1.25 | 0.887 | 0.355 | 0.334 | 0.343 | 0.324 | 0.411 | 0.406 | 0.422 | 0.354
NCI-H2342 | 0.743 | 0.963 | 0.807 | 0.805 | 0.79 | – | – | – | – | – | – | – | – | – | 0.525 | 0.445 | 0.454 | 0.49
NCI-H358 | 0.132 | 0.138 | 0.122 | 0.127 | 0.244 | 0.64 | 0.586 | 0.455 | 0.559 | 0.38 | 0.37 | 0.375 | 0.334 | 0.253 | 0.648 | 0.605 | 0.569 | 0.403
NCI-H1755 | 0.741 | 0.827 | 0.741 | 0.754 | 0.617 | 0.969 | 0.978 | 0.811 | 0.773 | 0.34 | 0.386 | 0.442 | 0.367 | 0.299 | 0.913 | 0.848 | 0.798 | 0.671
A-427 | 0.718 | 0.732 | 0.682 | 0.684 | 0.563 | 0.895 | 0.881 | 0.738 | 0.809 | 0.406 | 0.704 | 0.694 | 0.824 | 0.657 | 0.724 | 0.723 | 0.739 | 0.569
SK-LU-1 | 0.486 | 0.502 | 0.5 | 0.42 | 0.411 | 0.947 | 0.992 | 0.915 | 1.1 | 0.502 | 0.609 | 0.623 | 0.409 | 0.361 | 0.514 | 0.5 | 0.452 | 0.5
ABC-1 | – | – | – | – | – | 1.02 | 1.29 | 0.93 | 1.33 | 0.666 | 0.675 | 0.666 | 0.745 | 0.66 | 0.78 | 0.874 | 0.5 | 0.842
NCI-H1563 | – | – | – | – | – | 0.778 | 0.833 | 0.729 | 0.762 | 0.728 | 0.707 | 0.588 | 0.583 | 0.467 | – | – | – | –
NCI-H522 | 0.797 | 0.901 | 0.681 | 0.758 | 0.592 | – | – | – | – | – | – | – | – | – | 0.612 | 0.52 | 0.623 | 0.551
IA-LM | – | – | – | – | – | 1.05 | 0.733 | 0.619 | 0.58 | 0.369 | 0.281 | 0.328 | 0.389 | 0.242 | 0.97 | 0.785 | 0.919 | 0.846
NCI-H1793 | 0.55 | 0.371 | 0.366 | 0.46 | 0.355 | – | – | – | – | – | 0.301 | 0.256 | 0.399 | 0.314 | 0.87 | 0.99 | 0.864 | 0.8
SW 900 | 0.596 | 0.965 | 0.807 | 0.583 | 0.513 | – | – | – | – | – | – | – | – | – | 0.792 | 0.886 | 1.15 | 0.636
EBC-1 | – | – | – | – | – | 0.209 | 0.196 | 0.197 | 0.168 | 0.172 | 0.436 | 0.374 | 0.299 | 0.15 | 0.74 | 0.732 | 0.687 | 0.573
NCI-H1395 | 0.962 | 0.956 | 0.898 | 1.02 | 0.875 | – | – | – | – | – | 0.591 | 0.64 | 0.542 | 0.494 | 0.473 | 0.452 | 0.438 | 0.347
